Earlier results, collected in patent US9550804B2, “Dosage form to increase prasterone bioavailability” (Health Science Funding, LLC, priority 2011, dated 2017).
In brackets after ≈: the same amount, converted by molar mass.

Experiments:
[1] = not given; remark: listed apart in the source

For `C[C@]12CC[C@H](O)CC1=CC[C@@H]1[C@@H]2CC[C@]2(C)C(=O)CC[C@@H]12` [Prasterone, (3S,8R,9S,10R,13S,14S)-3-hydroxy-10,13-dimethyl-3,4,7,8,9,10,11,12,13,14,15,16-dodecahydro-1H-cyclopenta[a]phenan-thren-17(2H)-one], the solubility in water is given as 63.5 µg/mL (≈ 220 µM) and the “log P (octanol-water)” value [1] is given as 3.23.
